Measurements published in ChEMBL document CHEMBL5291721, “A preclinical secondary pharmacology resource illuminates target-adverse drug reaction associations of marketed drugs” (Nat Commun, 2023).

Key:
[1] = molecular target: T1, Equilibrative nucleoside transporter 1 (Homo sapiens, UniProt Q99808)
T1 sequence (Q99808 whole entry): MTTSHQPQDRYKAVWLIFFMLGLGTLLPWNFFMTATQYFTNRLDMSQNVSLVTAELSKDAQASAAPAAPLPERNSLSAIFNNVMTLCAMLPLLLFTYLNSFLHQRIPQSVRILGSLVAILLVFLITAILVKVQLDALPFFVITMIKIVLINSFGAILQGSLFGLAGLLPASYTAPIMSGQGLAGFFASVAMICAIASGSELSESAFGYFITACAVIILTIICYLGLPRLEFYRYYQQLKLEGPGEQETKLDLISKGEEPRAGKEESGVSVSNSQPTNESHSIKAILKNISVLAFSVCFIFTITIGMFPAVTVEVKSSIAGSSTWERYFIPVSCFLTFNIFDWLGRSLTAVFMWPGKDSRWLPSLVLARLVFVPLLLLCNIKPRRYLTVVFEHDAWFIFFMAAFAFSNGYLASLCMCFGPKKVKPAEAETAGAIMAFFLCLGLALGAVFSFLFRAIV

Melanocortin receptor 3 = Melanocortin receptor 3 (Homo sapiens, UniProt P41968)
[2] = molecular target: Delta-type opioid receptor (Homo sapiens, UniProt P41143)
[3] = molecular target: 5-hydroxytryptamine receptor 2A (Homo sapiens, UniProt P28223); type: functional, cell-based
Bile salt export pump = Bile salt export pump (Homo sapiens, UniProt O95342); type: functional
[4] = molecular target: T2, Cholecystokinin receptor type A (Homo sapiens, UniProt P32238)
T2 sequence (P32238 whole entry): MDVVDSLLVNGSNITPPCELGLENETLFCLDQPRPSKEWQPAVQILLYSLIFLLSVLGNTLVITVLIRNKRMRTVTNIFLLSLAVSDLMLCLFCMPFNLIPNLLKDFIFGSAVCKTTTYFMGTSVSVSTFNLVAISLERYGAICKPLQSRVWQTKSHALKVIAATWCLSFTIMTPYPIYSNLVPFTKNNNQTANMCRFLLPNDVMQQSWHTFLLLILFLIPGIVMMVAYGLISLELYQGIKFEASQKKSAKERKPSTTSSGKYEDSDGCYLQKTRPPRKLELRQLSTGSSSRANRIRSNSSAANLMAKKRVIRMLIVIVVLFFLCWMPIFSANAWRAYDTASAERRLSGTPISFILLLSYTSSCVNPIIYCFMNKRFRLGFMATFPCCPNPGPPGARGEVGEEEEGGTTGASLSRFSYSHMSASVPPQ

Melanocortin receptor 4 = Melanocortin receptor 4 (Homo sapiens, UniProt P32245)
[5] = molecular target: T3, Type-1 angiotensin II receptor (Homo sapiens, UniProt P30556)
T3 sequence (P30556 whole entry): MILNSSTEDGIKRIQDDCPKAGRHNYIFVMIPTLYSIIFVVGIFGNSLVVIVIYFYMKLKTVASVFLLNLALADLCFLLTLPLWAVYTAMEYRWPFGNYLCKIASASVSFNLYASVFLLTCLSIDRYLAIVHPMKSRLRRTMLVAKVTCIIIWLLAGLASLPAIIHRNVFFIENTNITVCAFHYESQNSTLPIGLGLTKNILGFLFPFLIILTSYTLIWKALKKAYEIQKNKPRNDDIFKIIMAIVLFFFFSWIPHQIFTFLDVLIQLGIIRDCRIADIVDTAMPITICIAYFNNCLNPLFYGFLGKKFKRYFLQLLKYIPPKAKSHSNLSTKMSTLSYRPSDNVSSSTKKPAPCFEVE

[6] = molecular target: 5-hydroxytryptamine receptor 2B (Homo sapiens, UniProt P41595); type: functional, cell-based
[7] = molecular target: Beta-1 adrenergic receptor (Homo sapiens, UniProt P08588); type: functional
Adenosine receptor A2a = Adenosine receptor A2a (Homo sapiens, UniProt P29274)
Adenosine receptor A1 = molecular target: T4, Adenosine receptor A1 (Homo sapiens, UniProt P30542)
T4 sequence (P30542 whole entry): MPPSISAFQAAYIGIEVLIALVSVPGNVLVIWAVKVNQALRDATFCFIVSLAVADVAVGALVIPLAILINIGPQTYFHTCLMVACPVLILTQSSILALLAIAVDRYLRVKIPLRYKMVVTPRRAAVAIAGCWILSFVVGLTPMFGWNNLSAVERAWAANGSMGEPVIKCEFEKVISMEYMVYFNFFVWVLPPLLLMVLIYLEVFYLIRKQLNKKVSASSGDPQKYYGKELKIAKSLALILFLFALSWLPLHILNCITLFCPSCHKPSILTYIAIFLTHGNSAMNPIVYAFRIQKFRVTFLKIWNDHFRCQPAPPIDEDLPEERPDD

Cannabinoid receptor 1 = Cannabinoid receptor 1 (Homo sapiens, UniProt P21554); type: functional, cell-based
Mu-type opioid receptor = Mu-type opioid receptor (Homo sapiens, UniProt P35372)
[8] = molecular target: Sodium-dependent dopamine transporter (Homo sapiens, UniProt Q01959)
Note: assay procedure not described here.

Chain of 5-hydroxytryptamine receptor 2A (P28223 whole entry): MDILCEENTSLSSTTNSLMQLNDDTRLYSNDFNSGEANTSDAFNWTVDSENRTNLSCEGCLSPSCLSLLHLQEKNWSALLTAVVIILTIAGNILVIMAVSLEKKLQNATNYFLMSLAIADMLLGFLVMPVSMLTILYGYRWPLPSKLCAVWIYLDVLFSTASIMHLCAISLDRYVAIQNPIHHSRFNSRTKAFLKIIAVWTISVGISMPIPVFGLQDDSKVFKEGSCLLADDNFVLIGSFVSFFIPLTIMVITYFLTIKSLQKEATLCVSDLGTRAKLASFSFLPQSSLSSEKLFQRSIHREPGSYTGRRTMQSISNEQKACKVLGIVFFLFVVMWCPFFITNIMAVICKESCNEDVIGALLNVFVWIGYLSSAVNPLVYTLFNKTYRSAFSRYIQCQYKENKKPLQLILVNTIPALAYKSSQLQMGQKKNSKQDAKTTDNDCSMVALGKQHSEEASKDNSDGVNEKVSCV
Chain of Adenosine receptor A2a (P29274 whole entry): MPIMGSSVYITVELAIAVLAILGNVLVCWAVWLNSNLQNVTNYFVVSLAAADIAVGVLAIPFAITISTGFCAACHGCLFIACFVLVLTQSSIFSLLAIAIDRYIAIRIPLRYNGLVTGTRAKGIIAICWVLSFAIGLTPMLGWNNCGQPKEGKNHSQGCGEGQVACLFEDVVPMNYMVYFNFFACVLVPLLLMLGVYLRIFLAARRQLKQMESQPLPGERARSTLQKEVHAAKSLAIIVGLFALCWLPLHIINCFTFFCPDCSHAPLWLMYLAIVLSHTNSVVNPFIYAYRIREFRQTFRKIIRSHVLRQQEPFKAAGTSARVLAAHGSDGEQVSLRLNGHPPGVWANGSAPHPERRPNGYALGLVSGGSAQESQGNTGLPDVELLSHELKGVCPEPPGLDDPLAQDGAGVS
Chain of Melanocortin receptor 3 (P41968 whole entry): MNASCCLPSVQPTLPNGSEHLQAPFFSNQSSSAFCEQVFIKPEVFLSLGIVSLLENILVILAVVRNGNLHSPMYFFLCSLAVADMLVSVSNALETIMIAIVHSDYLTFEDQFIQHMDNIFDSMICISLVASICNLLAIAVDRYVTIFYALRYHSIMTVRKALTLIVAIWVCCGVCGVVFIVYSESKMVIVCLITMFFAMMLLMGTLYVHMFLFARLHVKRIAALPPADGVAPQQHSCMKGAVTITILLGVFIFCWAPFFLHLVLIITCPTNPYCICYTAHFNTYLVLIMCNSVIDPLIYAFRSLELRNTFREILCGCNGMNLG
Chain of Melanocortin receptor 4 (P32245 whole entry): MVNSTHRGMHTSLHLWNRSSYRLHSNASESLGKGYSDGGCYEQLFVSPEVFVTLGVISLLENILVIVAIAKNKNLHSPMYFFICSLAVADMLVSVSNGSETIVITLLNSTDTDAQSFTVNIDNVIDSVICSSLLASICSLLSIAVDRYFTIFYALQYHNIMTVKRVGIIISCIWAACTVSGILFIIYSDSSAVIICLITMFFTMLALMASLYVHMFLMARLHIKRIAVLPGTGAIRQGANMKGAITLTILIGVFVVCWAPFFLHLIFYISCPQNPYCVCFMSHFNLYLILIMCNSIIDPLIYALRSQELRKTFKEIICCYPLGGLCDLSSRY
Chain of Cannabinoid receptor 1 (P21554 whole entry): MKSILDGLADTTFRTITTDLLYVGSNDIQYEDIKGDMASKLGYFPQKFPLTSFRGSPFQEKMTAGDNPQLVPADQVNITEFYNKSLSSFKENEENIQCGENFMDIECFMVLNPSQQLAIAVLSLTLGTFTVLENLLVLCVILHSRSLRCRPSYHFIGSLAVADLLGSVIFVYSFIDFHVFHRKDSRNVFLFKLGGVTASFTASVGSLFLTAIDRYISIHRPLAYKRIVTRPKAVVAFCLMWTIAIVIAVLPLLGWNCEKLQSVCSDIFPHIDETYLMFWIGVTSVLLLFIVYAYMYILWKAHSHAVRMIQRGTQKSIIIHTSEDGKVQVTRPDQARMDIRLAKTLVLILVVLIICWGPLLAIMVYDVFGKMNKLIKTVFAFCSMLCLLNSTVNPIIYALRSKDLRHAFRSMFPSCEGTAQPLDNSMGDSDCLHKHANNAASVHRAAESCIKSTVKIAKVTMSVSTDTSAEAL
Chain of Bile salt export pump (O95342 whole entry): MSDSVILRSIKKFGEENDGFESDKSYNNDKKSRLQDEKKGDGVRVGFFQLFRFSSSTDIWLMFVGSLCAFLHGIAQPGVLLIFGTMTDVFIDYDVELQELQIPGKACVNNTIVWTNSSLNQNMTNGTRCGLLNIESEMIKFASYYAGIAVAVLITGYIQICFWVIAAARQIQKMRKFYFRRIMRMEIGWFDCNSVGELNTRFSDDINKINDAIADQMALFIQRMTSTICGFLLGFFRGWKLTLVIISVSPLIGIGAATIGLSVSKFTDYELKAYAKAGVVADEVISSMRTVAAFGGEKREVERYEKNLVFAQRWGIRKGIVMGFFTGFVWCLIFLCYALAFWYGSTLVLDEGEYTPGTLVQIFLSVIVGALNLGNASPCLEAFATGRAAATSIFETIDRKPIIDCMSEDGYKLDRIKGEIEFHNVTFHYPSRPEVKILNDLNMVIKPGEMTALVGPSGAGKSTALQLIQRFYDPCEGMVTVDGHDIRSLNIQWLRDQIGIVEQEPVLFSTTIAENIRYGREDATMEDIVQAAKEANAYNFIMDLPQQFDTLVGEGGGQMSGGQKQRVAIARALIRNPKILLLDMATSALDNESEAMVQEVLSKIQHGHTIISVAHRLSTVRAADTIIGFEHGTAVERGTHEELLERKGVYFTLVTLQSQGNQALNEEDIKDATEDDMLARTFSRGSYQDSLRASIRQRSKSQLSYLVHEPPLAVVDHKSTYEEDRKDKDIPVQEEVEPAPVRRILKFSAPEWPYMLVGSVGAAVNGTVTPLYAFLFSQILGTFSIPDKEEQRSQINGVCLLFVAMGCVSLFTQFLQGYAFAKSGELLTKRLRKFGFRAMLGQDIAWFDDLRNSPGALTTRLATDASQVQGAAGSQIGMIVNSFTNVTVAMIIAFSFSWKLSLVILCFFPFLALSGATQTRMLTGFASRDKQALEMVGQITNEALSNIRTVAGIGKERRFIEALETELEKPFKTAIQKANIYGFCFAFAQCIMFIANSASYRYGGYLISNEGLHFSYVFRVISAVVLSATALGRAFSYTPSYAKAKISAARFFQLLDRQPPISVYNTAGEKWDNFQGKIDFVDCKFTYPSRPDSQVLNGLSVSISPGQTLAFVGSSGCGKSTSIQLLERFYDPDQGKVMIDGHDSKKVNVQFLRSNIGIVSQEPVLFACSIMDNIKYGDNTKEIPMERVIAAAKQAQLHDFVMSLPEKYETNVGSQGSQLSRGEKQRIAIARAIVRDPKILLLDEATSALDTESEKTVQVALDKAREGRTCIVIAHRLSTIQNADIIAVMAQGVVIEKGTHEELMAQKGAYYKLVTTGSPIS
Chain of Delta-type opioid receptor (P41143 whole entry): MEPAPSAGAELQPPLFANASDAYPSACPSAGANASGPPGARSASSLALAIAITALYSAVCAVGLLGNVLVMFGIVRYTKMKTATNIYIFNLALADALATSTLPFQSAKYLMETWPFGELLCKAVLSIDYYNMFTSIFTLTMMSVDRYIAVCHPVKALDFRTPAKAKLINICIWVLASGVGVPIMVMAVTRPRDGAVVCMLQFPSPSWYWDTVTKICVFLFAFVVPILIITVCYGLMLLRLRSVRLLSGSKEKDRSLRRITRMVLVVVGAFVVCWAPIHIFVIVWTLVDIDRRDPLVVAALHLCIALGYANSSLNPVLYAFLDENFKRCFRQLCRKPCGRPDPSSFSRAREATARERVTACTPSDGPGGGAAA
Chain of Beta-1 adrenergic receptor (P08588 whole entry): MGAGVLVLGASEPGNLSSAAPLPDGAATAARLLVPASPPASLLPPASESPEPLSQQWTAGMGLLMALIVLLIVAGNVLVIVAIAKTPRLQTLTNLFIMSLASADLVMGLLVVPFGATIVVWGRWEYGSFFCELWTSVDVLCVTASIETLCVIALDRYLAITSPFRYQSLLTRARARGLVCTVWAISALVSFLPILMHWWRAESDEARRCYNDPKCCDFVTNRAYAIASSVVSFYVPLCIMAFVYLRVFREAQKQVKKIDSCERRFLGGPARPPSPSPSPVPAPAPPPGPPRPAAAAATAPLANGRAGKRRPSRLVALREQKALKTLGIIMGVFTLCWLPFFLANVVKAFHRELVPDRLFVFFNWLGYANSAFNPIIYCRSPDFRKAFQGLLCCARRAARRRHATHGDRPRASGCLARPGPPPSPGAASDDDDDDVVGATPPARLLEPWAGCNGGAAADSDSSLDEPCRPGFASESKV
Chain of 5-hydroxytryptamine receptor 2B (P41595 whole entry): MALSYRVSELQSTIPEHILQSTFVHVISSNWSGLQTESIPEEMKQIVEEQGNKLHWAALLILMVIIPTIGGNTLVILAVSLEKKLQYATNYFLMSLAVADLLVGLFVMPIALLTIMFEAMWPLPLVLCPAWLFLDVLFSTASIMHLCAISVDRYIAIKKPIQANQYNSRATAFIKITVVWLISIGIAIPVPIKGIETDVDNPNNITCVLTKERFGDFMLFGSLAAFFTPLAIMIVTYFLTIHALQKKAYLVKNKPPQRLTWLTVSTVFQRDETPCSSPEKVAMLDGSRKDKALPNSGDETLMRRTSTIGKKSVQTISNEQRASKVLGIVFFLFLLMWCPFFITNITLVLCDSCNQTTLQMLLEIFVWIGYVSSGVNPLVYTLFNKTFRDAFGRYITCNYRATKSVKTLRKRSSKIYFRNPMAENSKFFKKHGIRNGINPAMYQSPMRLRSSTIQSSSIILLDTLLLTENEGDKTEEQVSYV

Row | Compound | AC50 [1] | AC50 (Melanocortin receptor 3) | AC50 [2] | AC50 [3] | AC50 (Bile salt export pump) | AC50 [4] | AC50 (Melanocortin receptor 4) | AC50 [5] | AC50 [6] | AC50 [7] | AC50 (Adenosine receptor A2a) | AC50 (Adenosine receptor A1) | AC50 (Cannabinoid receptor 1) | AC50 (Mu-type opioid receptor) | AC50 [8]
1 | C[C@@H]1O[C@@H]1P(=O)(O)O [FOSFOMYCIN] | > 10 µM | > 10 µM | > 30 µM | > 10 µM | > 300 µM | > 10 µM | > 10 µM | > 10 µM | > 10 µM | > 10 µM | > 10 µM | > 10 µM | – | – | –
2 | COC(=O)[C@@H]1CC2=CC(=O)CC[C@]2(C)[C@@]23O[C@@H]2C[C@@]2(C)[C@@H](CC[C@@]24CCC(=O)O4)[C@H]13 [EPLERENONE] | > 30 µM | > 30 µM | > 30 µM | > 30 µM | > 300 µM | > 30 µM | > 30 µM | > 30 µM | > 30 µM | > 30 µM | > 30 µM | > 30 µM | > 30 µM | – | –
3 | CC(N)Cc1ccccc1 (configuration not stated) [AMPHETAMINE] | > 30 µM | > 30 µM | > 30 µM | > 30 µM | > 300 µM | > 30 µM | > 30 µM | > 30 µM | > 30 µM | > 30 µM | 11 µM | 18 µM | > 30 µM | – | –
4 | O=C(CCCCCCC(=O)Nc1ccccc1)NO [VORINOSTAT] | > 30 µM | > 30 µM | > 30 µM | > 30 µM | > 300 µM | > 30 µM | > 30 µM | > 30 µM | > 30 µM | > 30 µM | > 30 µM | > 30 µM | > 30 µM | – | –
5 | COC(=O)N[C@H](C(=O)N[C@@H](Cc1ccccc1)[C@@H](O)CN(Cc1ccc(-c2ccccn2)cc1)NC(=O)[C@@H](NC(=O)OC)C(C)(C)C)C(C)(C)C [ATAZANAVIR] | > 30 µM | > 30 µM | > 30 µM | > 10 µM | 2 µM | 17.6 µM | > 30 µM | > 10 µM | > 10 µM | > 10 µM | > 30 µM | > 30 µM | – | – | –
6 | Cc1ccc(C(=O)c2cc(O)c(O)c([N+](=O)[O-])c2)cc1 [TOLCAPONE] | > 30 µM | > 10 µM | > 30 µM | > 10 µM | 30.3 µM | > 10 µM | > 10 µM | > 10 µM | > 10 µM | > 10 µM | > 30 µM | 15.6 µM | – | – | –
7 | CC(C(=O)O)c1ccc(C(=O)c2cccs2)cc1 (configuration not stated) [SUPROFEN] | > 10 µM | > 10 µM | > 30 µM | > 10 µM | > 300 µM | > 10 µM | > 10 µM | > 10 µM | > 10 µM | – | > 10 µM | > 10 µM | – | – | –
8 | CN1C(=O)CC(C)(c2ccccc2)C1=O (configuration not stated) [METHSUXIMIDE] | > 10 µM | > 10 µM | > 30 µM | > 10 µM | > 300 µM | > 10 µM | > 10 µM | > 10 µM | > 10 µM | > 10 µM | > 10 µM | > 10 µM | – | – | –
9 | COc1cc2c(cc1OC)C(=O)C(CC1CCN(Cc3ccccc3)CC1)C2 (configuration not stated) [DONEPEZIL] | > 30 µM | > 30 µM | > 30 µM | > 30 µM | > 300 µM | > 30 µM | > 30 µM | 15.6 µM | – | > 10 µM | > 30 µM | > 30 µM | > 30 µM | > 30 µM | 9.78 µM
